Laboratory results published in PMC12236194, “Precision dendritic-supramolecular glycan assemblies for probing multivalent lectin interactions” (Chemical Science, 2025).

Legend:
[1] = biological target: monomeric Griffithsin (GRFT); set-up: method as in PMID 17340634; conditions: monovalent sugar; cited from earlier work
[2] = Dynamic light scattering (DLS) hydrodynamic diameter in solution; assay type: physicochemical; conditions: H2O, 1 mM, 25 °C
Description: S3. Dynamic Light Scattering (DLS)
All measurements were conducted using a 384-well plate with individual sample volumes of 30
µL. Solutions of man-2, man-3, and man-6 were freshly prepared in H2O (1 mM). For the glycoassembly analyses, two solution conditions were used: samples prepared in H2O (5 μM), and samples prepared in mixed DMSO/H2O solutions (85% v/v, 50 μM). The concentration of each glycoassembly solution was determined by absorption spectroscopy according to ε values (M-1cm-1) reported in Section S2.2. All sample solutions were filtered through a 0.22 μm PTFE syringe filter before being added to a well. The sample plate was then centrifuged using a Fisherbrand Mini Plate Spinner Centrifuge at 2500 rpm for 20 sec, and measurements were immediately collected at 25 °C. Before data collection, images were taken of each well to confirm the absence of bubbles or visible dust particles that affect the DLS measurements. The hydrodynamic diameter (Dh) values represent the mean ± standard deviation (σ) of the hydrodynamic size averaged for three (1 sec) scans and all data were analyzed using DYNAMICS […]
S3.1.1. Measurement in H2O (1 mM)
Figure S53. DLS measurements of man -2 (H O, 1 mM).
S3.2.1. Measurement in H2O (1 mM)
Figure S54. DLS measurements of man-3 (H2O, 1 mM). […]

Compound	Kd [1] [µM]	Hydrodynamic diameter (Dh) [2] [nm]
OC[C@H]1O[C@H](O)[C@@H](O)[C@@H](O)[C@@H]1O [α-D-mannose]	~100	–
O=Cc1ccc(OCc2cc(OCc3cc(OCc4cn(CCOCCO[C@H]5O[C@H](CO)[C@@H](O)[C@H](O)[C@@H]5O)nn4)c(OCc4cn(CCOCCO[C@H]5O[C@H](CO)[C@@H](O)[C@H](O)[C@@H]5O)nn4)c(OCc4cn(CCOCCO[C@H]5O[C@H](CO)[C@@H](O)[C@H](O)[C@@H]5O)nn4)c3)cc(OCc3cc(OCc4cn(CCOCCO[C@H]5O[C@H](CO)[C@@H](O)[C@H](O)[C@@H]5O)nn4)c(OCc4cn(CCOCCO[C@H]5O[C@H](CO)[C@@H](O)[C@H](O)[C@@H]5O)nn4)c(OCc4cn(CCOCCO[C@H]5O[C@H](CO)[C@@H](O)[C@H](O)[C@@H]5O)nn4)c3)c2)cn1 [man-6]	–	2.4 ± 0.2
O=Cc1ccc(OCc2cc(OCc3cn(CCOCCO[C@H]4O[C@H](CO)[C@@H](O)[C@H](O)[C@@H]4O)nn3)c(OCc3cn(CCOCCO[C@H]4O[C@H](CO)[C@@H](O)[C@H](O)[C@@H]4O)nn3)c(OCc3cn(CCOCCO[C@H]4O[C@H](CO)[C@@H](O)[C@H](O)[C@@H]4O)nn3)c2)cn1 [man-3]	–	1.8 ± 0.1
O=Cc1ccc(OCc2cc(OCc3cn(CCOCCO[C@H]4O[C@H](CO)[C@@H](O)[C@H](O)[C@@H]4O)nn3)cc(OCc3cn(CCOCCO[C@H]4O[C@H](CO)[C@@H](O)[C@H](O)[C@@H]4O)nn3)c2)cn1 [man-2]	–	1.6 ± 0.6
